Key:
Safety and tolerability = type: in vivo
[1] = system: advanced and/or refractory solid tumors; assay: Tumor response; type: in vivo, human
[2] = Panel 2: MK-5108 CT with docetaxel 60 mg/m^2 (n = 17)
[3] = Panel 2: MK-5108 CT with docetaxel (N = 17)
[4] = Panel 2: (N = 17) MK-5108 CT with docetaxel

O=C(O)[C@]1(Cc2cccc(Nc3nccs3)n2)CC[C@@H](Oc2cccc(Cl)c2F)CC1 [MK-5108]
AEs (all grades and doses) by SOC: Skin and subcutaneous tissue disorders (Safety and tolerability; Panel 2 (CT), 12/17): 70.6%
patients with a Grade 3 or 4 drug-related AE (Safety and tolerability; Panel 2 (CT), 12/17): 70.6%
AEs (all grades and doses) by SOC: Blood and lymphatic system disorders (Safety and tolerability; Panel 2 (CT), 15/17): 88.2%
AEs (all grades and doses) by SOC: General disorders and administration site conditions (Safety and tolerability; Panel 2 (CT), 15/17): 88.2%
Death (Safety and tolerability; [2]): 0 n (%)
Discontinued treatment due to a drug-related AE (Safety and tolerability; [2]): 1 (5.9) n (%)
Discontinued treatment due to a drug-related SAE (Safety and tolerability; [2]): 1 (5.9) n (%)
Discontinued treatment due to an SAE (Safety and tolerability; [2]): 2 (11.8) n (%)
Discontinued treatment due to any AE (Safety and tolerability; [2]): 2 (11.8) n (%)
Patients with any AE (Safety and tolerability; [2]): 17 (100.0) n (%)
Patients with drug-related AE (Safety and tolerability; [2]): 15 (88.2) n (%)
Patients with no AE (Safety and tolerability; [2]): 0 n
Patients with serious AE (Safety and tolerability; [2]): 9 (52.9) n (%)
Patients with serious drug-related AE (Safety and tolerability; [2]): 4 (23.5) n (%)
Drug-related AEs by SOC: Blood and lymphatic system disorders (Safety and tolerability; [3]): 14 (82.4) n (%)
Drug-related AEs by SOC: Gastrointestinal disorders (Safety and tolerability; [3]): 11 (64.7) n (%)
Drug-related AEs by SOC: General disorders and administration site conditions (Safety and tolerability; [3]): 11 (64.7) n (%)
Drug-related AEs by SOC: Infections and infestations (Safety and tolerability; [3]): 4 (23.5) n (%)
Drug-related AEs by SOC: Investigations (Safety and tolerability; [3]): 5 (29.4) n (%)
Drug-related AEs by SOC: Metabolism and nutrition disorders (Safety and tolerability; [3]): 9 (52.9) n (%)
Drug-related AEs by SOC: Musculoskeletal and connective tissue disorders (Safety and tolerability; [3]): 5 (29.4) n (%)
Drug-related AEs by SOC: Nervous system disorders (Safety and tolerability; [3]): 3 (17.6) n (%)
Drug-related AEs by SOC: Respiratory, thoracic and mediastinal disorders (Safety and tolerability; [3]): 5 (29.4) n (%)
Drug-related AEs by SOC: Skin and subcutaneous tissue disorders (Safety and tolerability; [3]): 8 (47.1) n (%)
Drug-related AEs by SOC: Vascular disorders (Safety and tolerability; [3]): 2 (11.8) n (%)
Patients with drug-related AEs, highest grade: Grade 1 (Safety and tolerability; [3]): 0 (0.0) n (%)
Patients with drug-related AEs, highest grade: Grade 2 (Safety and tolerability; [3]): 3 (17.6) n (%)
Patients with drug-related AEs, highest grade: Grade 3 (Safety and tolerability; [3]): 6 (35.3) n (%)
Patients with drug-related AEs, highest grade: Grade 4 (Safety and tolerability; [3]): 6 (35.3) n (%)
Patients with no drug-related AEs (Safety and tolerability; [3]): 2 (11.8) n (%)
Patients with one or more drug-related AEs (Safety and tolerability; [3]): 15 (88.2) n (%)
Drug-related AEs by SOC: Blood and lymphatic system disorders (Safety and tolerability; Total (N = 35)): 20 (57.1) n (%)
Drug-related AEs by SOC: Gastrointestinal disorders (Safety and tolerability; Total (N = 35)): 19 (54.3) n (%)
Drug-related AEs by SOC: General disorders and administration site conditions (Safety and tolerability; Total (N = 35)): 20 (57.1) n (%)
Drug-related AEs by SOC: Infections and infestations (Safety and tolerability; Total (N = 35)): 4 (11.4) n (%)
Drug-related AEs by SOC: Investigations (Safety and tolerability; Total (N = 35)): 8 (22.9) n (%)
Drug-related AEs by SOC: Metabolism and nutrition disorders (Safety and tolerability; Total (N = 35)): 13 (37.1) n (%)
Drug-related AEs by SOC: Musculoskeletal and connective tissue disorders (Safety and tolerability; Total (N = 35)): 7 (20.0) n (%)
Drug-related AEs by SOC: Nervous system disorders (Safety and tolerability; Total (N = 35)): 7 (20.0) n (%)
Drug-related AEs by SOC: Respiratory, thoracic and mediastinal disorders (Safety and tolerability; Total (N = 35)): 7 (20.0) n (%)
Drug-related AEs by SOC: Skin and subcutaneous tissue disorders (Safety and tolerability; Total (N = 35)): 10 (28.6) n (%)
Drug-related AEs by SOC: Vascular disorders (Safety and tolerability; Total (N = 35)): 2 (5.7) n (%)
Patients with drug-related AEs, highest grade: Grade 1 (Safety and tolerability; Total (N = 35)): 4 (11.4) n (%)
Patients with drug-related AEs, highest grade: Grade 2 (Safety and tolerability; Total (N = 35)): 8 (22.9) n (%)
Patients with drug-related AEs, highest grade: Grade 3 (Safety and tolerability; Total (N = 35)): 7 (20.0) n (%)
Patients with drug-related AEs, highest grade: Grade 4 (Safety and tolerability; Total (N = 35)): 7 (20.0) n (%)
Patients with no drug-related AEs (Safety and tolerability; Total (N = 35)): 9 (25.7) n (%)
Patients with one or more drug-related AEs (Safety and tolerability; Total (N = 35)): 26 (74.3) n (%)
Partial Response ([1]; MK-5108 225 Q12hr (450 mg/day) CT, 1 patient): 5.9%
stable disease ([1]; MK-5108 CT, 7 patients): 41.2%
Progressive Disease ([1]; MK-5108 MT, 8 patients): 44.4%
stable disease ([1]; MK-5108 MT, 9 patients): 50%
best response: stable disease (patients/evaluable) ([1]; Panel 1 (MT)): 9/17
median duration of stable disease ([1]; Panel 1 (MT)): 88 days
Partial Response ([1]; Panel 1: (N = 18) MK-5108 MT): 0 (0.0) n (%)
Progressive Disease ([1]; Panel 1: (N = 18) MK-5108 MT): 8 (44.4) n (%)
Tumor response category: Discontinued due to AE ([1]; Panel 1: (N = 18) MK-5108 MT): 1 (5.6) n (%)
stable disease ([1]; Panel 1: (N = 18) MK-5108 MT): 9 (50.0) n (%)
best response: SD (patients/evaluable) ([1]; Panel2 (CT)): 7/16
median duration of stable disease ([1]; Panel2 (CT)): 48 days
best response: PR (patients/evaluable) ([1]; Panel2 (CT), 450 mg/day): 1/16
Partial Response [1, 4]: 1 (5.9) n (%)
Progressive Disease [1, 4]: 8 (47.1) n (%)
Tumor response category: Discontinued due to AE [1, 4]: 1 (5.9) n (%)
stable disease [1, 4]: 7 (41.2) n (%)
complete responses ([1]; either of the treatment panels): no complete responses

Source: paper PMC4806784 (Investigational new drugs, 2015)
